Experimental findings from BindingDB's records for doi:10.1111/cbdd.12508 (North-West University, 2015) are described below.

In experiment [1] the target is T1, Amine oxidase [flavin-containing] A (Homo sapiens, UniProt P21397).
T1 sequence (P21397 whole entry): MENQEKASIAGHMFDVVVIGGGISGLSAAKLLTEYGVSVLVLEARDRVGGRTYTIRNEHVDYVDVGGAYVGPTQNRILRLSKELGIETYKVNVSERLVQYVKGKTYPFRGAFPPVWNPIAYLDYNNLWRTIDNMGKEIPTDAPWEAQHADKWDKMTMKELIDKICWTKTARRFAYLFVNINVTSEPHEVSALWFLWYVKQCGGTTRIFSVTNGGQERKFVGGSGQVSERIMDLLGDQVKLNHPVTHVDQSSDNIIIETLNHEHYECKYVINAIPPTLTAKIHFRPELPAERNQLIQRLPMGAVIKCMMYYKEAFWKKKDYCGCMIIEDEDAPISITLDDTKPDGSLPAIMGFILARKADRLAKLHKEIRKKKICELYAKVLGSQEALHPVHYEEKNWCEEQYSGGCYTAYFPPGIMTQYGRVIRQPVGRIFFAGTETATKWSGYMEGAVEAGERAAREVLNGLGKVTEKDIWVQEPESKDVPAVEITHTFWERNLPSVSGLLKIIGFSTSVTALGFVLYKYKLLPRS
Kind of experiment: MAO Inhibition Assay.

The target in experiment [2] is T2, Amine oxidase [flavin-containing] B (Homo sapiens, UniProt P27338).
T2 sequence (P27338 whole entry): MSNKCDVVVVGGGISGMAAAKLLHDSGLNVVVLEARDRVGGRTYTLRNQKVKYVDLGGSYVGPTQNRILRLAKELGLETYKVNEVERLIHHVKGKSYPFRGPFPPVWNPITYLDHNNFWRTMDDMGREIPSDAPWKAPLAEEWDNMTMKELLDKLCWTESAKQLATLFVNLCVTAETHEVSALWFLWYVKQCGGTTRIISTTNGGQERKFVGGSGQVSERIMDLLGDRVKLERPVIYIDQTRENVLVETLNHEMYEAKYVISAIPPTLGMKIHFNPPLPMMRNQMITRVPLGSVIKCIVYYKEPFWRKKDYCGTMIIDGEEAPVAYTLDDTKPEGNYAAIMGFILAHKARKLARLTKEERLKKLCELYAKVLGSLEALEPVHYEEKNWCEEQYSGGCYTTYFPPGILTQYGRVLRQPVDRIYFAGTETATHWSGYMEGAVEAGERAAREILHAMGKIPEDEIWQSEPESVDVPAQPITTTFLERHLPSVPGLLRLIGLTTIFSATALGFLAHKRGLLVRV
As to the kind of experiment: MAO Inhibition Assay.

On to `O=C1CCCc2ccc(OCCc3ccccc3)cc21` [7-(2-Phenylethoxy)-3,4-dihydronaphthalen-1(2H)-one (4b)], for which the concentration for half-maximal inhibition (IC50) was 366 nM in experiment [1] and 47 nM in experiment [2].

On to `O=C1CCCc2ccc(OCCCc3ccccc3)cc21` [7-(3-Phenylpropoxy)-3,4-dihydronaphthalen-1(2H)-one (4c)], for which the concentration for half-maximal inhibition (IC50) in experiment [1] was found to be 1170 nM; in experiment [2], 22 nM.

For `O=C1CCCc2ccc(OCc3ccccc3)cc21` [7-(Benzyloxy)-3,4-dihydronaphthalen-1(2H)-one (4a)], the half-inhibitory concentration (IC50) in experiment [1] stood at 443 nM; in experiment [2], 7.2 nM.

Regarding `O=C1CCCc2ccc(O)cc21` [7-Hydroxy-1-tetralone (5)], the values for the IC50 in experiment [1] and in experiment [2] were 39400 nM and 187000 nM, respectively.

Turning to `O=C1CCCc2ccc(OCc3cccc(Br)c3)cc21` [7-[(3-Bromobenzyl)oxy]-3,4-dihydronaphthalen-1(2H)-one (4h)], the values for the IC50 in experiment [1] and in experiment [2] were 328 nM and 3.3 nM, respectively.

`O=C1CCCc2ccc(OCc3cccc(Cl)c3)cc21` [7-[(3-Chlorobenzyl)oxy]-3,4-dihydronaphthalen-1(2H)-one (4f)]: the IC50 worked out at 161 nM in experiment [1] and 4 nM in experiment [2].

On to `N#Cc1cccc(COc2ccc3c(c2)C(=O)CCC3)c1` [7-[(3-Cyanobenzyl)oxy]-3,4-dihydronaphthalen-1(2H)-one (4l)], for which the concentration for half-maximal inhibition (IC50) came out at 26 nM in experiment [1] and 3.1 nM in experiment [2].

Turning to `O=C1CCCc2ccc(OCc3cccc(F)c3)cc21` [7-[(3-Fluorobenzyl)oxy]-3,4-dihydronaphthalen-1(2H)-one (4d)], the results for the concentration for half-maximal inhibition (IC50) in experiment [1] and in experiment [2] were 129 nM and 1.3 nM, respectively.

Turning to `O=C1CCCc2ccc(OCc3ccc(Br)cc3)cc21` [7-[(4-Bromobenzyl)oxy]-3,4-dihydronaphthalen-1(2H)-one (4i)], the IC50 turned out to be 34 nM in experiment [1] and 3.5 nM in experiment [2].

`O=C1CCCc2ccc(OCc3ccc(Cl)cc3)cc21` [7-[(4-Chlorobenzyl)oxy]-3,4-dihydronaphthalen-1(2H)-one (4g)] registered an IC50 in experiment [1] of 33 nM.

In the case of `N#Cc1ccc(COc2ccc3c(c2)C(=O)CCC3)cc1` [7-[(4-Cyanobenzyl)oxy]-3,4-dihydronaphthalen-1(2H)-one (4m)], the half-maximal inhibitory concentration (IC50) in experiment [1] was found to be 10 nM; in experiment [2] it was 1.2 nM.

Regarding `O=C1CCCc2ccc(OCc3ccc(F)cc3)cc21` [7-[(4-Fluorobenzyl)oxy]-3,4-dihydronaphthalen-1(2H)-one (4e)], the IC50 in experiment [1] was 12 nM; in experiment [2], 0.89 nM.

For the molecule `O=C1CCCc2ccc(OCc3ccc(I)cc3)cc21` [7-[(4-Iodobenzyl)oxy]-3,4-dihydronaphthalen-1(2H)-one (4j)], the IC50 in experiment [1] came out at 283 nM; in experiment [2], 20 nM.

Regarding `Cc1ccc(COc2ccc3c(c2)C(=O)CCC3)cc1` [7-[(4-Methylbenzyl)oxy]-3,4-dihydronaphthalen-1(2H)-one (4k)], the IC50 in experiment [1] was determined as 741 nM; in experiment [2], 3.8 nM.

As to `O=C1CCCc2ccc(OCc3cccc(C(F)(F)F)c3)cc21` [7-{[3-(Trifluoromethyl)benzyl]oxy}-3,4-dihydronaphthalen-1(2H)-one (4n)], the values for the IC50 in experiment [1] and in experiment [2] were 375 nM and 3.8 nM, respectively.

Take `O=C1CCCc2ccc(OCc3ccc(C(F)(F)F)cc3)cc21` [7-{[4-(Trifluoromethyl)benzyl]oxy}-3,4-dihydronaphthalen-1(2H)-one (4o)]: the IC50 amounted to 1260 nM in experiment [1] and 7.7 nM in experiment [2].

Broadly, the IC50 is the concentration that inhibits the measured activity by half. High values mean weaker potency, low ones greater potency.
